According to patent US20260216204A1, “METHODS FOR TREATING LOWER RISK MYELODYSPLASTIC SYNDROME” (Constellation Pharmaceuticals, Inc., priority 2022, published 2026):

Tests used:
[1] = tested on: IL-10 release of primary MDS patient PBMCs stimulated with LPS; assay: Cytokine release of LPS-stimulated primary MDS patient PBMCs (eight-point titration): IL-10; format: cell-based, human; conditions: 5 μM to 8.2 nM, normalized to DMSO only, n=7-10 donors, FIG. 3
Description: (§1) Primary MDS patient samples (cryopreserved peripheral blood mononuclear cells (PBMCs)) were purchased from Discovery Life Sciences. For sample selection, we chose patients with low blast count (ideally below 5%), excluded patients with multilineage dysplasia and (if available) checked blood parameters such as white blood cell count and disease staging notes in order to select patients that show LR-MDS characteristics. Freshly thawed PBMCs were seeded at 50 000 cells/well in a 96-well flat bottom plate. 0.001 μg/mL lipopolysaccharide (LPS-B5, Invivogen) were added to induce IL-6 production. […] After centrifugation, the supernatant of the cells was collected and IL-6 protein in the supernatant was quantified using Human IL-6 Kit (V-PLEX, Meso Scale Discovery). The assay plates were read on a Meso Sector S600. […] The half maximal inhibitory concentration (IC50) was calculated by logarithmic transformation of the compound concentrations and applying “log(inhibitor) vs. response—variable slope (four parameters)”—function. […] After centrifugation, the supernatant of the cells was collected and IFNγ, TNFα, IL-6, IL-8 or IL-10 protein in the supernatant was quantified using Proinflammatory Panel 1 Human Kit (IFNγ, TNFα, IL-6 and IL-10) or Human IL-8 Kit (both V-PLEX, Meso Scale Discovery). The assay plates were read on a Meso Sector S600. […]

[2] = tested on: IL-6 release of primary MDS patient PBMCs stimulated with LPS; assay: IL-6 release of LPS-stimulated primary MDS patient PBMCs, electrochemiluminescence immunoassay (nine-point titration); format: cell-based, human; conditions: n=2 donors, FIG. 1
Description: This study was performed to evaluate the anti-inflammatory activity of pelabresib on MDS patient cells from different donors. The NF-kB pathway is central in regulating cytokines such as TNF-α, IL-6, and IL-8 which are elevated in MDS patients and play role in the pathogenesis of myelodysplastic syndromes (Ref: e.g. doi: 10.1097/MD.0000000000015844). Primary MDS patient samples (cryopreserved peripheral blood mononuclear cells (PBMCs)) were purchased from Discovery Life Sciences. For sample selection, we chose patients with low blast count (ideally below 5%), excluded patients with multilineage dysplasia and (if available) checked blood parameters such as white blood cell count and disease staging notes in order to select patients that show LR-MDS characteristics. Freshly thawed PBMCs were seeded at 50 000 cells/well in a 96-well flat bottom plate. 0.001 μg/mL lipopolysaccharide (LPS-B5, Invivogen) were added to induce IL-6 production. […] After centrifugation, the supernatant of the cells was collected and IL-6 protein in the supernatant was quantified using Human IL-6 Kit (V-PLEX, Meso Scale Discovery). The assay plates were read on a Meso Sector S600. […] The half maximal inhibitory concentration (IC50) was calculated by logarithmic transformation of the compound concentrations and applying “log(inhibitor) vs. response—variable slope (four parameters)”—function.

[3] = tested on: TNFα release of primary MDS patient PBMCs stimulated with LPS; assay: Cytokine release of LPS-stimulated primary MDS patient PBMCs (eight-point titration): TNFα; format: cell-based, human; conditions: 5 μM to 8.2 nM, normalized to DMSO only, n=7-10 donors, FIG. 3
Description: as §1

[4] = tested on: CD34+ stem cells derived from LR-MDS donors; assay: Erythropoiesis of hematopoietic stem cells (CD34+) isolated from MDS patient bone marrow, flow cytometry; format: cell-based, human; conditions: pelabresib monohydrate 500 nM to 31.25 nM tested; FIG. 2 at 250 nM with erythroid expansion supplement, day 7, n=2 donors
Description: Primary MDS patient samples (cryopreserved bone marrow mononuclear cells (BMMCs)) were purchased from Discovery Life Sciences. For sample selection, we chose patients with low blast count (ideally below 5%), excluded patients with multilineage dysplasia and (if available) checked blood parameters such as white blood cell count and disease staging notes in order to select patients that show LR-MDS characteristics. Hematopoietic stem cells (CD34+) were isolated with EasySep Human CD34+ selection Kit II (StemCell Technologies) using freshly thawed cells. Cells were seeded at 1000 cells/well (for erythropoiesis) or 2500 cells/well (for CC100 differentiation mix) in a 96-flat-well plate. Differentiation cocktails StemSpan™ Erythroid Expansion Supplement (for Erythropoieses) or StemSpan™ CC100 (differentiation mix) were added according to the manufacturer's instructions. A 5-point titration series of pelabresib monohydrate with concentrations ranging from 500 nM to 31.25 nM was tested in duplicate. “DMSO only” treated wells served as control and were also used to prepare flow cytometry controls (such as FMOs). […] On day 7 cells were analysed via flow cytometry. […] Among the viable cells the percentage of CD34+CD71+ (megakaryocyte-erythroid progenitors (MEP)) and percentage of CD34−CD71+ (pro-erythroblasts/erythroblasts (pro-EB/EB)) was determined and depicted in GraphPad Prism 8 per donor.

advanced MF patients = conditions: cited from earlier work
[5] = tested on: transfusion dependent MF patients; conditions: Arm 2, pelabresib in addition to ruxolitinib; cited from earlier work
[6] = tested on: IFNγ release of primary MDS patient PBMCs stimulated with LPS; assay: Cytokine release of LPS-stimulated primary MDS patient PBMCs (eight-point titration): IFNγ; format: cell-based, human; conditions: 5 μM to 8.2 nM, normalized to DMSO only, n=7-10 donors, FIG. 3
Description: as §1

[7] = tested on: erythrocyte progenitors in bone marrow biopsy; conditions: semi-quantitative CD71 IHC, baseline vs Week 24, 22 out of 37; cited from earlier work
[8] = tested on: CD34+ cells isolated from blood samples of healthy donors and MF patients; conditions: cited from earlier work
[9] = tested on: inflammatory cytokine regulated by the NF-κB pathway; conditions: lymphoma and MF patients; cited from earlier work
[10] = tested on: IL-8 release of primary MDS patient PBMCs stimulated with LPS; assay: Cytokine release of LPS-stimulated primary MDS patient PBMCs (eight-point titration): IL-8; format: cell-based, human; conditions: 5 μM to 8.2 nM, normalized to DMSO only, n=7-10 donors, FIG. 3
Description: as §1

[11] = tested on: IL-6 release of primary MDS patient PBMCs stimulated with LPS; assay: Cytokine release of LPS-stimulated primary MDS patient PBMCs (eight-point titration): IL-6; format: cell-based, human; conditions: 5 μM to 8.2 nM, normalized to DMSO only, n=7-10 donors, FIG. 3
Description: as §1

Cc1noc2c1-c1ccccc1C(c1ccc(Cl)cc1)=N[C@H]2CC(N)=O [pelabresib, 2-((4S)-6-(4-chlorophenyl)-1-methyl-4H-benzo[c]isoxazolo[4,5-e]azepin-4-yl)acetamide]
release of IL-10 [1]: suppressed release | IL-6 release in donor PBMCs ([2]; 5 μM to 3.3 nM, dose dependent): suppressed IL-6 release | IC50 ([2]; Homo sapiens, PBMC, 0.001 μg/mL LPS, approx. 18 hours, normalized to DMSO only control): 248 nM | release of TNFα [3]: suppressed release | differentiation of CD34+ stem cells towards erythropoiesis [4]: enhanced the differentiation | median duration of RBC-TI (advanced MF patients; Arm 1, monotherapy): 44 weeks | transfusion dependent relapsed/refractory MF patients who achieved RBC-TI ≥12 weeks (advanced MF patients; Arm 1, monotherapy): 21% | patients who achieved ≥1.5 g/dL increase in Hgb levels without transfusion (advanced MF patients; monotherapy, 11 out of 19): 57.9% | median duration of RBC-TI [5]: 39 weeks | transfusion dependent MF patients who achieved RBC-TI ≥12 weeks [5]: 36% | release of IFNγ [6]: suppressed release | patients with an increase in erythrocyte progenitors [7]: 59% | erythrocyte maturation ([8]; CD34+ cells from healthy donors and MF patients, cytokine cocktail): promotes erythrocyte maturation | suppressive effects of ruxolitinib on erythroid differentiation ([8]; in the presence of ruxolitinib, dose-dependent): rescued the suppressive effects | levels of inflammatory cytokine regulated by the NF-κB pathway [9]: can decrease the levels | release of IL-8 [10]: suppressed release | release of IL-6 [11]: suppressed release
